# Data: US4409210A, “Antibiotic compound” (priority 1982, dated 1983)
# How the values were obtained:
# Assay type in all cases: cell-based
# [1] = test system: Clostridium acidiurici A9560; test: MIC, serial two-fold dilution method (anaerobic); details: Gottschalkia acidurici; Clostridium acidiurici A9560; GAM agar medium; inoculum 10^7-10^8; read-out: minimum inhibitory concentration (MIC)
# [2] = test system: Clostridium chauvoei A9561; test: MIC, serial two-fold dilution method (anaerobic); details: Clostridium chauvoei A9561; GAM agar medium; inoculum 10^7-10^8; read-out: minimum inhibitory concentration (MIC)
# Procedure: (§1) The minimum inhibitory concentration (MIC) of Bu-2517 was determined for a variety of aerobic and anaerobic bacteria by the serial two-fold dilution method using a multi-inoculating apparatus. Mueller-Hinton agar was generally used for aerobic bacteria, GC medium (Eiken) for fastidious aerobic organisms such as streptococci, Neisseria and Haemophilus species, and GAM agar medium (Nissui) for anaerobic bacteria. The inoculum size was adjusted to 10^6 CFU/ml for streptococci, Neisseria and Haemophilus species, 10^4 for other aerobic bacteria and 10^7 -10^8 for all anaerobic organisms. Amphomycin, ampicillin, chloramphenicol, clindamycin, erthromycin, kanamycin and vancomycin were used as reference antibiotics.
# [3] = test system: Clostridium difficile A21675; test: MIC, serial two-fold dilution method (anaerobic); details: Clostridioides difficile; Clostridium difficile A21675; GAM agar medium; inoculum 10^7-10^8; read-out: minimum inhibitory concentration (MIC)
# Procedure: as §1
# [4] = test system: Clostridium difficile A21972; test: MIC, serial two-fold dilution method (anaerobic); details: Clostridioides difficile; Clostridium difficile A21972; GAM agar medium; inoculum 10^7-10^8; read-out: minimum inhibitory concentration (MIC)
# Procedure: as §1
# [5] = test system: Clostridium septicum A21869; test: MIC, serial two-fold dilution method (anaerobic); details: Clostridium septicum A21869; GAM agar medium; inoculum 10^7-10^8; read-out: minimum inhibitory concentration (MIC)
# Procedure: as §1
# [6] = test system: Clostridium cylindrosporum A9562; test: MIC, serial two-fold dilution method (anaerobic); details: Clostridium cylindrosporum A9562; GAM agar medium; inoculum 10^7-10^8; read-out: minimum inhibitory concentration (MIC)
# [7] = test system: Clostridium perfringens A9635; test: microbe, parasite or virus in culture; details: Clostridium perfringens, A9635, read-out: minimum inhibitory concentration (MIC)
# [8] = test system: Clostridium perfringens A22787; test: microbe, parasite or virus in culture; details: Clostridium perfringens, A22787, read-out: minimum inhibitory concentration (MIC)
# [9] = test system: Clostridium ramosum A21970; test: MIC, serial two-fold dilution method (anaerobic); details: Thomasclavelia ramosa; Clostridium ramosum A21970; GAM agar medium; inoculum 10^7-10^8; read-out: minimum inhibitory concentration (MIC)
# [10] = test system: Propionibacterium acnes A21933; test: MIC, serial two-fold dilution method (anaerobic); details: Cutibacterium acnes; Propionibacterium acnes A21933; GAM agar medium; inoculum 10^7-10^8; read-out: minimum inhibitory concentration (MIC)
# [11] = test system: Propionibacterium acnes A21953; test: MIC, serial two-fold dilution method (anaerobic); details: Cutibacterium acnes; Propionibacterium acnes A21953; GAM agar medium; inoculum 10^7-10^8; read-out: minimum inhibitory concentration (MIC)
# [12] = test system: Propionibacterium acnes A22650; test: MIC, serial two-fold dilution method (anaerobic); details: Cutibacterium acnes; Propionibacterium acnes A22650; GAM agar medium; inoculum 10^7-10^8; read-out: minimum inhibitory concentration (MIC)
# [13] = test system: Peptostreptococcus anaerobius A21905; test: MIC, serial two-fold dilution method (anaerobic); details: Peptostreptococcus anaerobius A21905; GAM agar medium; inoculum 10^7-10^8; read-out: minimum inhibitory concentration (MIC)
# [14] = test system: Peptostreptococcus intermedius A21881; test: MIC, serial two-fold dilution method (anaerobic); details: Peptostreptococcus intermedius A21881; GAM agar medium; inoculum 10^7-10^8; read-out: minimum inhibitory concentration (MIC)
# [15] = test system: Peptococcus magnas A21676; test: MIC, serial two-fold dilution method (anaerobic); details: Peptococcus magnas A21676; GAM agar medium; inoculum 10^7-10^8; read-out: minimum inhibitory concentration (MIC)
# [16] = test system: Bacteroides fragilis CUH-9; test: MIC, serial two-fold dilution method (anaerobic); details: CUH9; Bacteroides fragilis CUH-9; GAM agar medium; inoculum 10^7-10^8; read-out: minimum inhibitory concentration (MIC)
# [17] = test system: Bacteroides fragilis CUH-24; test: MIC, serial two-fold dilution method (anaerobic); details: CUH24; Bacteroides fragilis CUH-24; GAM agar medium; inoculum 10^7-10^8; read-out: minimum inhibitory concentration (MIC)
# [18] = test system: Bacteroides fragilis A20926; test: MIC, serial two-fold dilution method (anaerobic); details: Bacteroides fragilis A20926; GAM agar medium; inoculum 10^7-10^8; read-out: minimum inhibitory concentration (MIC)
# [19] = test system: Bacteroides fragilis A20928-1; test: MIC, serial two-fold dilution method (anaerobic); details: A209281; Bacteroides fragilis A20928-1; GAM agar medium; inoculum 10^7-10^8; read-out: minimum inhibitory concentration (MIC)
# [20] = test system: Bacteroides fragilis A20929; test: MIC, serial two-fold dilution method (anaerobic); details: Bacteroides fragilis A20929; GAM agar medium; inoculum 10^7-10^8; read-out: minimum inhibitory concentration (MIC)
# [21] = test system: Bacteroides fragilis A21900; test: MIC, serial two-fold dilution method (anaerobic); details: Bacteroides fragilis A21900; GAM agar medium; inoculum 10^7-10^8; read-out: minimum inhibitory concentration (MIC)
# [22] = test system: Bacteroides fragilis A22053; test: MIC, serial two-fold dilution method (anaerobic); details: Bacteroides fragilis A22053; GAM agar medium; inoculum 10^7-10^8; read-out: minimum inhibitory concentration (MIC)
# [23] = test system: Bacteroides fragilis A22533; test: MIC, serial two-fold dilution method (anaerobic); details: Bacteroides fragilis A22533; GAM agar medium; inoculum 10^7-10^8; read-out: minimum inhibitory concentration (MIC)
# [24] = test system: Bacteroides fragilis A22695; test: MIC, serial two-fold dilution method (anaerobic); details: Bacteroides fragilis A22695; GAM agar medium; inoculum 10^7-10^8; read-out: minimum inhibitory concentration (MIC)
# [25] = test system: Bacteroides ovatus A22400; test: MIC, serial two-fold dilution method (anaerobic); details: Bacteroides ovatus A22400; GAM agar medium; inoculum 10^7-10^8; read-out: minimum inhibitory concentration (MIC)
# [26] = test system: Fusobacterium necrophorum A20013; test: MIC, serial two-fold dilution method (anaerobic); details: Fusobacterium necrophorum A20013; GAM agar medium; inoculum 10^7-10^8; read-out: minimum inhibitory concentration (MIC)
# [27] = test system: Fusobacterium nucleatum A21906; test: MIC, serial two-fold dilution method (anaerobic); details: Fusobacterium nucleatum A21906; GAM agar medium; inoculum 10^7-10^8; read-out: minimum inhibitory concentration (MIC)
# [28] = test system: Fusobacterium varium ATCC 8501; test: MIC, serial two-fold dilution method (anaerobic); details: ATCC8501; Fusobacterium varium ATCC 8501; GAM agar medium; inoculum 10^7-10^8; read-out: minimum inhibitory concentration (MIC)
# [29] = test system: Veillonella alcalescens A21914-1; test: MIC, serial two-fold dilution method (anaerobic); details: Veillonella parvula, A219141; Veillonella alcalescens A21914-1; GAM agar medium; inoculum 10^7-10^8; read-out: minimum inhibitory concentration (MIC)
# [30] = test system: Veillonella parvula A20010; test: MIC, serial two-fold dilution method (anaerobic); details: Veillonella parvula A20010; GAM agar medium; inoculum 10^7-10^8; read-out: minimum inhibitory concentration (MIC)
structure (smiles),measurement,setting,value
CCC[C@@H]1C[C@@H](C(=O)N[C@@H]([C@H]2O[C@H](SC)[C@H](O)[C@@H](O)[C@H]2O)[C@H](C)Cl)N(C)C1 [Clindamycin],MIC,[1],0.8 µg/mL
same,MIC,[2],0.025 µg/mL
same,MIC,[3],100 µg/mL
same,MIC,[4],0.025 µg/mL
same,MIC,[5],0.8 µg/mL
same,MIC,[6],0.8 µg/mL
same,MIC,[7],0.025 µg/mL
same,MIC,[8],50 µg/mL
same,MIC,[9],0.025 µg/mL
same,MIC,[10],0.8 µg/mL
same,MIC,[11],0.8 µg/mL
same,MIC,[12],0.1 µg/mL
same,MIC,[13],0.2 µg/mL
same,MIC,[14],0.2 µg/mL
same,MIC,[15],0.05 µg/mL
same,MIC,[16],50 µg/mL
same,MIC,[17],> 100 µg/mL
same,MIC,[18],0.025 µg/mL
same,MIC,[19],0.025 µg/mL
same,MIC,[20],3.1 µg/mL
same,MIC,[21],1.6 µg/mL
same,MIC,[22],0.2 µg/mL
same,MIC,[23],0.025 µg/mL
same,MIC,[24],0.1 µg/mL
same,MIC,[25],6.3 µg/mL
same,MIC,[26],12.5 µg/mL
same,MIC,[27],1.6 µg/mL
same,MIC,[28],1.6 µg/mL
same,MIC,[29],0.013 µg/mL
same,MIC,[30],0.4 µg/mL
